“Also recorded” adds a separate entry of the source.
Key:
recombinant hsp90 = experiment: Fluorescence quenching binding assay; settings: 25° C.
Description: For the fluorescence-quenching assay, fluorescence intensity was recorded on a SpectraMax Gemini XS plate reader (Molecular Devices, Palo Alto, Calif.) using a 96-well black PCR plate (Thermo Scientific, Logan, Utah). Compounds (10 mM in ethanol) were diluted with 50 mM Tris-HCl (pH 7.4) to obtain a solution with a 15 μM final concentration. Aliquots of proteins were added to the compounds solution and mixed with micro pipette by gently pulling in and drawing out the solution. Fluorescence intensities (λex=350 nm, λem=450 nm) were measured at 25° C. Equilibrium dissociation constant KD was obtained by fitting the data using the nonlinear least squares option of the GraphPad Prism software. All experiments were completed in duplicates and repeated at least three times.
To determine the binding efficiency, fluorescence quenching experiments were carried out with recombinant hsp90.

[1] = system: mouse model of HIV-associated sensory neuropathy; experiment: Mouse model of HIV-associated sensory neuropathy; assay type: in vivo; settings: 75 μg/kg/day; data not shown
diabetic rats = experiment: Diabetic rats: distal axonal degeneration and autonomic testing; assay type: in vivo, rat; settings: data not shown
primary DRG neurons = experiment: Axon length assay, paclitaxel-induced distal axonal degeneration; assay type: cell-based, rat; settings: 24 hours exposure, βIII-tubulin staining
Description: Measurements of axonal lengths to determine axonal degeneration induced by EQ and representative derivatives were done as described in Keswani et al., “FK506 is neuroprotective in a model of antiretroviral toxic neuropathy,” Annals of Neurology, 53(1):57-64 (2003). Initially, dorsal root ganglia (DRG) cells were harvested from embryonic rats (14.5 days old) according to standard protocol, then cells were plated onto collagen-coated glass coverslips and allowed to extend axons for 24 h in media (Neurobasal medium, 50 mM PS, 0.2% fetal bovine serum (FBS), 0.5 mM glutamine, 1×B-27 supplement, 0.2% glucose, 10 ng/mL glial cell line-derived neurotrophic factor (GDNF)). Paclitaxel (PTX), EQ and representative derivatives, or vehicle controls were added to the wells for another 24 h incubation. DRG cells were fixed with 4% paraformaldehyde and stained with anti-βIII-tubulin antibody to delineate the axons. Axon lengths were measured in multiple fields using a random sampling method as described by Keswani et al., 2003. All experiments were performed in triplicates and repeated twice. Statistical analysis was done using the ANOVA procedure. Correction for multiple comparisons was completed with Fisher's protected least significant difference. Bars marked with * indicate statistically significant differences with p<0.05.

AJ mice treated with PTX = experiment: Mouse model of chemotherapy induced peripheral neuropathy (paclitaxel); assay type: in vivo; settings: various doses daily, PTX 25 mg/kg i.v. days 1, 3, 5
Description: In this model, animals develop thermal hypoalgesia and reduction in sensory nerve action potential (SNAP) amplitudes. AJ mice were given three doses of PTX at 25 mg/kg intravenously every other day (days 1, 3 and 5). Vehicle control or EQ was administered daily starting on day 1 and tissues were harvested at day 19. Immediately before tissue harvest, sensory nerve conduction studies and thermal sensation measurements were carried out.

hsp90 [2] = experiment: Binding efficacy of paclitaxel to hsp90 in the presence of EQ
Description: Further, it was known that paclitaxel binds to hsp90. To determine if EQ was binding to the same site and displacing paclitaxel, the binding efficacy of paclitaxel to hsp90 was measured. […] It is possible that EQ binds to hsp90 and modifies its chaperone activity for an important client protein.

hsp90 [3] = experiment: Neuroprotection by EQ with hsp90 siRNA or control siRNA; assay type: cell-based, rat
Description: For the RNA inhibition experiments, transfection with siRNA was carried out according to the manufacturer's protocol. 50B11 cells were plated in 6-well plates in culture medium (Neurobasal medium, 10% fetal bovine serum (FBS), 0.5 mM glutamine, 1×B-27 supplement, 0.2% glucose) without antibiotics overnight and allowed to reach 50-70% confluence. On the second day, 1 μL siRNA oligomer (Ambion, Life Technologies, Carlsbad, Calif.) was diluted in 250 μL Opti-MEM media, and 5 μL Lipofectation 2000 (Invitrogen, Life Technologies, Carlsbad, Calif.) in another 250 μL Opti-MEM media. After 5 minutes incubation, dilutions were combined and incubated for 20 minutes at RT and then the oligomer-Lipofectation 2000 complexes were added to each well. […]
The protein isolation, protein electrophoresis (SDS-PAGE) and Western blotting assays were performed according to the instructions of the manufacturer. […] The measurements of total protein concentrations were performed using BCA kits (Thermo Scientific, Logan, Utah) on SpectraMax 340PC microplate reader (Molecular Devices, Palo Alto, Calif.). Samples (30 μg of total protein per well) and standards (SeeBlue® Plus2 Pre-Stained Standard, Invitrogen, Life Technologies, Carlsbad, Calif.) were loaded onto the wells (Ready Gel® 4-15% Tris-HCl, 50 μL^−1 gel; Bio-Rad, Hercules, Calif.). […]

hsp90 [4] = experiment: Colorimetric (malachite green) determination of hsp90 ATPase activity; assay type: biochemical; settings: wide dose range of EQ
Description: The assay procedure for the colorimetric determination of ATPase activity was based on Rowlands et al., “High-throughput Screening Assay for Inhibitors of Heat-Shock Protein 90 ATPase Activity,” Analytical Biochemistry 327:176-183 (2004). The malachite green reagent was prepared on the day of use. It contained malachite green (Sigma Aldrich, St. Louis, Mo.; 0.0812%, w/v), polyvinyl alcohol (Sigma Aldrich, St. Louis, Mo.; 2.32%, w/v), ammonium molybdate (Sigma Aldrich, St. Louis, Mo.; 5.72%, w/v, in 6 M HCl), and UltraPure Distilled Water (Invitrogen, Life Technologies, Carlsbad, Calif.), mixed in the ratio 2:1:1:2. The reagent was initially dark brown, and then it changed to a golden yellow after 2 h at room temperature, which meant it was ready for use. The assay buffer (pH 7.4) was 100 mM Tris-HCl, 20 mM KCl, 6 mM MgCl2.
The test compounds were dissolved in 100% (v/v) DMSO to give a stock concentration of 10 mM. This solution was diluted to six appropriate concentrations with test compounds in the assay buffer. 5 μL of each compound solution was added to each well of the Perkin-Elmer 96-well assay plate. The first two rows of the 96-well plate contained DMSO only, representing the control and background values, respectively. […] The absorbance at 620 nm was measured using the SpectraMAX 340PC microplate reader (Molecular Devices, Palo Alto, Calif.). […]

[5] = system: four different human breast cancer cell lines: MCE-7, SUM-159, TATD, and MDA-MB-231; experiment: Antineoplastic activity of paclitaxel with or without EQ (cellular ATP levels); assay type: cell-based; settings: paclitaxel co-administered with varying concentrations of EQ
Description: To determine the effect of EQ on the antineoplastic activity of paclitaxel, the conditions for culturing four cancer cell lines and measuring the ATP levels were optimized for the 96-well plate format. Briefly, 1500 cells/well in media (MDA-MB-231 in DMEM with 10% FBS; MCF-7 in DMEM with 10% FBS; TATD in RPMI with 10% FBS; SUM159 in DMEM/F-12 (250 mL/250 mL) with 5% FBS, 500 μL of 10 mg/mL insulin and 25 μL of 10 mg/mL hydrocordisol) were plated in 96-well plates for 24 h. Constant concentrations of paclitaxel (PTX) with or without EQ were added to the wells for another 24 h. Cellular ATP levels were measured using ViaLight Plus kit (Cambrex) according to the manufacturer's protocol on a LMaxI microplate reader (Molecular Devices, Palo Alto, Calif.).

Substance: Ethoxyquin [EQ]
- Kd (recombinant hsp90): 280 nM
- distal axonal degeneration [1]: prevents distal axonal degeneration
- distal axonal degeneration (diabetic rats; 75 μg/kg/day): reverses distal axonal degeneration
- erectile dysfunction induced by diabetes (autonomic testing) (diabetic rats): prevents erectile dysfunction induced by diabetes
- distal axonal degeneration induced by PTX (axon lengths) (primary DRG neurons): partially prevented distal axonal degeneration induced by PTX
- sensory nerve action potential (SNAP) amplitude (AJ mice treated with PTX; tail sensory nerves): prevented this reduction in SNAP amplitude
- distal axonal degeneration and intraepidermal nerve fiber density in the footpads (AJ mice treated with PTX): loss of distal axons was prevented
- thermal hypoalgesia induced by PTX (AJ mice treated with PTX): prevented
- effect on binding of paclitaxel to hsp90 (hsp90 [2]): did not affect the binding of paclitaxel to hsp90; also recorded: does not alter the binding efficacy of paclitaxel to hsp90
- neuroprotection against paclitaxel with hsp90 siRNA (hsp90 [3]; PTX+100 nM EQ (+) siRNA, hsp90 downregulated): the neuroprotection by EQ disappeared; also recorded: reverses neuroprotection by EQ
- neuroprotection against paclitaxel without hsp90 siRNA (hsp90 [3]; PTX+100 nM EQ (−) siRNA): Neuroprotection by EQ can be seen
- effect on ATPase activity of hsp90 (hsp90 [4]): does not affect the ATPase activity of hsp90; also recorded: does not alter the ATPase activity of hsp90
- effect on paclitaxel's reduction of cell viability (relative ATP levels) [5]: did not affect the ability of paclitaxel to reduce cell viability; also recorded: no significant change in reduced cell viability was observed

— patent publication US9527817B2, “Compounds for treating peripheral; neuropathies and other neurodegenerative; disorders” (THE JOHNS HOPKINS UNIVERSITY, priority 2011, dated 2016)
